Data reported in the supplement of paper PMC11208160.

Assay: recombinant UMI read abundance after kanamycin selection (control-corrected) (log10(CPM+1)); higher = more efficient recombination; extreme values may be limits of the assay; sequences stand for … in AGTGCAGAGAAAATCGGCCAGTTTTCTCTGCCTGCAGTCCGCATGCCGTGGGACCCCTTGGGTTCTAACCTGTTGCCTAGATTTATGCAGCGGACTGCCTTTCTCCCAAAGTGATAAACCGG…AGGTTGGTTTCACT; site = the 11-nt donor
Method in brief: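 For the IS621 bridge recombinase, a pooled Escherichia coli screen tested donor and donor-binding-loop pairs. Cells received the pair library together with a target plasmid encoding a fixed target and T7-inducible recombinase, then went onto IPTG (0.07 mM) plus kanamycin or unselected plates in duplicate. After PCR across the donor–target junction and sequencing, recombinant UMI counts were normalized to CPM, averaged, and scaled by control-derived factors. Each value is given as log10(CPM+1).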
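Note: IS621 bridge recombinase in Escherichia coli cells against a fixed T5 target plasmid.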

Sequence | recombinant UMI read abundance (log10)
ATCTATACATGGACCGGTTTTCCCGGTAATCCGTATTTGTC (site ATCTATACTGC) | 0
ATCTATACATGGACCGGTTTTCCCGGTAATCCGTATTTGTC (site ATCTATACTGG) | 0
ATCTATACATGGACCGGTTTTCCCGGTAATCCGTATTTGTC (site ATCTATACTGT) | 0
ATCTGATCATGGACCGGTTTTCCCGGTAATCCGTATTTGCT (site ATCTGATCTAG) | 2.71
ATCTTGGCATGGACCGGTTTTCCCGGTAATCCGTATTTGCT (site ATCTTGGCTAG) | 0
ATGAACTCATGGACCGGTTTTCCCGGTAATCCGTATTTGGG (site ATGAACTCTCC) | 1.08
ATGAAGACATGGACCGGTTTTCCCGGTAATCCGTATTTGCT (site AGGAAGACTTG) | 0
ATGAAGACATGGACCGGTTTTCCCGGTAATCCGTATTTGCT (site ATGAAGACTAG) | 2.82
ATGAATACATGGACCGGTTTTCCCGGTAATCCGTATTTGCA (site AGGAAGACTTG) | 0
ATGAATACATGGACCGGTTTTCCCGGTAATCCGTATTTGCA (site ATGAATACTTG) | 2.21
ATGAATACATGGACCGGTTTTCCCGGTAATCCGTATTTGGC (site ATGAATACTGC) | 1.69
ATGAATTCATGGACCGGTTTTCCCGGTAATCCGTATTTGGT (site ATGAATTCTAC) | 2.57
ATGAGGACATGGACCGGTTTTCCCGGTAATCCGTATTTGGG (site ATGAGGACTCC) | 0.399
ATGATAACATGGACCGGTTTTCCCGGTAATCCGTATTTGCA (site ATGATAACTTG) | 2.08
ATGCAAGCATGGACCGGTTTTCCCGGTAATCCGTATTTGAG (site ATACAAGCTCT) | 2.24
ATGCAAGCATGGACCGGTTTTCCCGGTAATCCGTATTTGAG (site ATCCAAGCTCT) | 0.701
ATGCAAGCATGGACCGGTTTTCCCGGTAATCCGTATTTGAG (site ATGCAAGCTCT) | 2.26
ATGCAAGCATGGACCGGTTTTCCCGGTAATCCGTATTTGAG (site ATTCAAGCTCT) | 0.614
ATGCAAGCATGGACCGGTTTTCCCGGTAATCCGTATTTGGA (site ATGCAAGCTTC) | 1.86
ATGCAGACATGGACCGGTTTTCCCGGTAATCCGTATTTGCA (site AGGAAGACTTG) | 0
ATGCAGACATGGACCGGTTTTCCCGGTAATCCGTATTTGCA (site ATGCAGACTTG) | 2.15
ATGCATGCATGGACCGGTTTTCCCGGTAATCCGTATTTGGT (site ATGCATGCTAC) | 1.67
ATGCATGCATGGACCGGTTTTCCCGGTAATCCGTATTTGGT (site CTGCATGCTAC) | 0.628
ATGCATGCATGGACCGGTTTTCCCGGTAATCCGTATTTGGT (site GTGCATGCTAC) | 0.323
ATGCATGCATGGACCGGTTTTCCCGGTAATCCGTATTTGGT (site TTGCATGCTAC) | 0.601

Sequence | recombinant UMI read abundance (log10)
ATGCTCGCATGGACCGGTTTTCCCGGTAATCCGTATTTGAA (site ATGCTCGCTTT) | 1.82
ATGGCACCATGGACCGGTTTTCCCGGTAATCCGTATTTGGG (site ATGGCACCTCC) | 0.00577
ATGGGAGCATGGACCGGTTTTCCCGGTAATCCGTATTTGTA (site ATGGGAGCTTA) | 2.2
ATGGGCCCATGGACCGGTTTTCCCGGTAATCCGTATTTGAC (site ATGGGCCCTGT) | 0.523
ATGGGTACATGGACCGGTTTTCCCGGTAATCCGTATTTGGC (site ATGGGTACTGC) | 2.89
ATGGTAGCATGGACCGGTTTTCCCGGTAATCCGTATTTGGA (site ATGGTAGCTTC) | 1.72
ATGGTATCATGGACCGGTTTTCCCGGTAATCCGTATTTGAC (site ATGGTATCTGT) | 3.67
ATGGTATCATGGACCGGTTTTCCCGGTAATCCGTATTTGAC (site CTAGTATCTGT) | 2.1
ATGGTATCATGGACCGGTTTTCCCGGTAATCCGTATTTGCA (site ACAGTATCTTG) | 1.69
ATGGTATCATGGACCGGTTTTCCCGGTAATCCGTATTTGCA (site ATGGTATCTTG) | 3.07
ATGGTTTCATGGACCGGTTTTCCCGGTAATCCGTATTTGTA (site ATGGTTTCTTA) | 2.68
ATGTACGCATGGACCGGTTTTCCCGGTAATCCGTATTTGGC (site ATGTAAGCTGC) | 1.81
ATGTACGCATGGACCGGTTTTCCCGGTAATCCGTATTTGGC (site ATGTACGCTGC) | 3.06
ATGTACGCATGGACCGGTTTTCCCGGTAATCCGTATTTGGC (site ATGTAGGCTGC) | 0
ATGTACGCATGGACCGGTTTTCCCGGTAATCCGTATTTGGC (site ATGTATGCTGC) | 0
ATGTACTCATGGACCGGTTTTCCCGGTAATCCGTATTTGCA (site ATGTACTCTTG) | 2.96
ATGTAGCCATGGACCGGTTTTCCCGGTAATCCGTATTTGGC (site ATGTAGACTGC) | 0
ATGTAGCCATGGACCGGTTTTCCCGGTAATCCGTATTTGGC (site ATGTAGCCTGC) | 0.669
ATGTAGCCATGGACCGGTTTTCCCGGTAATCCGTATTTGGC (site ATGTAGGCTGC) | 0
ATGTAGCCATGGACCGGTTTTCCCGGTAATCCGTATTTGGC (site ATGTAGTCTGC) | 1.33
ATGTAGGCATGGACCGGTTTTCCCGGTAATCCGTATTTGGC (site AAGTAGGCTGC) | 1.22
ATGTAGGCATGGACCGGTTTTCCCGGTAATCCGTATTTGGC (site ACGTAGGCTGC) | 1.74
ATGTAGGCATGGACCGGTTTTCCCGGTAATCCGTATTTGGC (site AGGTAGGCTGC) | 0.332
ATGTAGGCATGGACCGGTTTTCCCGGTAATCCGTATTTGGC (site ATATAGGCTGC) | 2.8
ATGTAGGCATGGACCGGTTTTCCCGGTAATCCGTATTTGGC (site ATCTAGGCTGC) | 0.844

Sequence | recombinant UMI read abundance (log10)
ATGTAGGCATGGACCGGTTTTCCCGGTAATCCGTATTTGGC (site ATGAAGGCTGC) | 2.35
ATGTAGGCATGGACCGGTTTTCCCGGTAATCCGTATTTGGC (site ATGCAGGCTGC) | 2.19
ATGTAGGCATGGACCGGTTTTCCCGGTAATCCGTATTTGGC (site ATGGAGGCTGC) | 0
ATGTAGGCATGGACCGGTTTTCCCGGTAATCCGTATTTGGC (site ATGTAAGCTGC) | 2.28
ATGTAGGCATGGACCGGTTTTCCCGGTAATCCGTATTTGGC (site ATGTACGCTGC) | 0.834
ATGTAGGCATGGACCGGTTTTCCCGGTAATCCGTATTTGGC (site ATGTAGACTGC) | 2.34
ATGTAGGCATGGACCGGTTTTCCCGGTAATCCGTATTTGGC (site ATGTAGCCTGC) | 0.604
ATGTAGGCATGGACCGGTTTTCCCGGTAATCCGTATTTGGC (site ATGTAGGCTAC) | 1.17
ATGTAGGCATGGACCGGTTTTCCCGGTAATCCGTATTTGGC (site ATGTAGGCTCC) | 0.328
ATGTAGGCATGGACCGGTTTTCCCGGTAATCCGTATTTGGC (site ATGTAGGCTGA) | 2.15
ATGTAGGCATGGACCGGTTTTCCCGGTAATCCGTATTTGGC (site ATGTAGGCTGC) | 2.4
ATGTAGGCATGGACCGGTTTTCCCGGTAATCCGTATTTGGC (site ATGTAGGCTGG) | 2.41
ATGTAGGCATGGACCGGTTTTCCCGGTAATCCGTATTTGGC (site ATGTAGGCTGT) | 2.51
ATGTAGGCATGGACCGGTTTTCCCGGTAATCCGTATTTGGC (site ATGTAGGCTTC) | 1.15
ATGTAGGCATGGACCGGTTTTCCCGGTAATCCGTATTTGGC (site ATGTAGTCTGC) | 1.06
ATGTAGGCATGGACCGGTTTTCCCGGTAATCCGTATTTGGC (site ATGTATGCTGC) | 0.657
ATGTAGGCATGGACCGGTTTTCCCGGTAATCCGTATTTGGC (site ATGTCGGCTGC) | 0.474
ATGTAGGCATGGACCGGTTTTCCCGGTAATCCGTATTTGGC (site ATGTGGGCTGC) | 0.618
ATGTAGGCATGGACCGGTTTTCCCGGTAATCCGTATTTGGC (site ATGTTGGCTGC) | 0.568
ATGTAGGCATGGACCGGTTTTCCCGGTAATCCGTATTTGGC (site ATTTAGGCTGC) | 0.516
ATGTAGGCATGGACCGGTTTTCCCGGTAATCCGTATTTGGC (site CTGTAGGCTGC) | 0.572
ATGTAGGCATGGACCGGTTTTCCCGGTAATCCGTATTTGGC (site GTGTAGGCTGC) | 0.716
ATGTAGGCATGGACCGGTTTTCCCGGTAATCCGTATTTGGC (site TTGTAGGCTGC) | 1.95
ATGTAGGCATGGACCGGTTTTCCCGGTAATCCGTATTTGGG (site ATGTAGGCTAC) | 0.251
ATGTAGGCATGGACCGGTTTTCCCGGTAATCCGTATTTGGG (site ATGTAGGCTCC) | 0.167
